# According to ChEMBL document CHEMBL1201862, “PubChem BioAssay data set” (2004):
# Active and inactive are the calls of the source.
# How the values were obtained:
# [1] = target: Induced myeloid leukemia cell differentiation protein Mcl-1 (Homo sapiens, UniProt Q07820); type: functional
# [2] = target: T1, Voltage-gated N-type calcium channel alpha-1B subunit/Amyloid beta A4 precursor protein-binding family A member 1 (Homo sapiens, UniProt Q00975+Q02410); type: protein assay
# [3] = viability loss of HPDE-C7K cells – cell-based, fluorescence, HTS, primary screen (AID 431); type: functional; conditions: Homo sapiens
# [4] = target: T1, Voltage-gated N-type calcium channel alpha-1B subunit/Amyloid beta A4 precursor protein-binding family A member 1; type: protein assay; remark: listed apart in the source
# [5] = target: T2, Estrogen receptor (Homo sapiens, UniProt P03372);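 also: potency for inhibiting coactivator peptide recruitment to the receptor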
# T2 sequence (P03372 whole entry): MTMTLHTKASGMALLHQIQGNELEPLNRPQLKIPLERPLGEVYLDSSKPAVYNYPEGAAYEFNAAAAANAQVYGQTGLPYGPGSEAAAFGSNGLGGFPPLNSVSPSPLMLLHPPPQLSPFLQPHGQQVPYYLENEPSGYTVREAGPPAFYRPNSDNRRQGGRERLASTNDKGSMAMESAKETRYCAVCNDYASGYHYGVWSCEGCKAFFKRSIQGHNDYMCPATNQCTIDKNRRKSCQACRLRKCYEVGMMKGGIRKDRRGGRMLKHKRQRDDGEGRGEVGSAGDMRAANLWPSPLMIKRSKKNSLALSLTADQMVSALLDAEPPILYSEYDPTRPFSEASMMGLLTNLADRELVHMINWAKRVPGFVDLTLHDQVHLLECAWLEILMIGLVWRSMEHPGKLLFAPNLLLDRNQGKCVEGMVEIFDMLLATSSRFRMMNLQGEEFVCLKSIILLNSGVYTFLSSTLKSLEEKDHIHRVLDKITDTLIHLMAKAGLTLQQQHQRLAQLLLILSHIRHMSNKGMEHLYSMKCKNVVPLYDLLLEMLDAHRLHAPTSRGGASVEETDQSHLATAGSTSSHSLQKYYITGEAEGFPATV
# [6] = target: Ephrin type-A receptor 4 (Mus musculus, UniProt Q03137); test: EphA4 ligand-binding antagonists – biochemical, colorimetric, mouse EphA4, primary screen (AID 689); type: functional
# [7] = HPDE-C7 pancreatic duct cell viability loss – fluorescence, HTS (AID 430); type: functional, cell-based; conditions: Homo sapiens
# [8] = target: Aspartyl aminopeptidase (Plasmodium falciparum 3D7, UniProt Q8I2J3)
# [9] = target: Procathepsin L (Homo sapiens, UniProt P07711)
# [10] = target: Heat shock protein HSP 90-alpha (Homo sapiens, UniProt P07900); type: functional, organism-based
# [11] = target: T3, Alkaline phosphatase, tissue-nonspecific isozyme (Homo sapiens, UniProt P05186); test: activation of tissue-nonspecific alkaline phosphatase – biochemical, TNAP isozyme, human IAP uHTS hits, selectivity assay for human IAP activator project, dose response (AID 488886); type: functional;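 also: potency of compounds raising TNAP activity as a selectivity check on IAP activators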
# T3 sequence (P05186 whole entry): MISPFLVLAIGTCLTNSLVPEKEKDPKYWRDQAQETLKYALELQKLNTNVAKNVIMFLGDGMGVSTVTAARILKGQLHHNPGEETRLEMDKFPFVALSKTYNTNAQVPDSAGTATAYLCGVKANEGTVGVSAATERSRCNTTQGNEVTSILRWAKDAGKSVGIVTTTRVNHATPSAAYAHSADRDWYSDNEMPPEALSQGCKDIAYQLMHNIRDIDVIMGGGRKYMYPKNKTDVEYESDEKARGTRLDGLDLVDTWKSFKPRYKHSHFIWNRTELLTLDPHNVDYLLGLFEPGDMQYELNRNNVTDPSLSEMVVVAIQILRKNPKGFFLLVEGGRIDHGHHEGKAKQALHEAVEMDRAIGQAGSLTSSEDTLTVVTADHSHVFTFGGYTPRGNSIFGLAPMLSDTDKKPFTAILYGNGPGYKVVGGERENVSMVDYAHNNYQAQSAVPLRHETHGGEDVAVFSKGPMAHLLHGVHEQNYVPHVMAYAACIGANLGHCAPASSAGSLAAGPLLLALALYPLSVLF
# [12] = target: T4, Intestinal-type alkaline phosphatase (Homo sapiens, UniProt P09923); test: human intestinal alkaline phosphatase activators, dose response, biochemical, luminescence, uHTS hits (AID 463120); type: functional
# [13] = target: T5, Intestinal-type alkaline phosphatase (Mus musculus, UniProt P24822); test: PubChem AID 488875; type: functional
# [14] = target: T4, Intestinal-type alkaline phosphatase; test: activation of human intestinal alkaline phosphatase – biochemical, luminescent, uHTS hits, set 2, dose response (AID 488817); type: functional;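 also: potency of activators that raise enzyme activity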
# [15] = test system: INS1; test: INS-1E survival protection against cytokine death – cell-based, luminescence, retest, dose response (AID 449756); type: functional; conditions: Rattus norvegicus;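 also: cell death triggered by IL-1 beta plus TNF-alpha plus IFN-gamma mixture; protective hits raise ATP signal compared with cytokine alone wells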
# [16] = target: Acyl-homoserine lactone acylase PvdQ (Pseudomonas aeruginosa (strain LESB58), UniProt Q9I194); test: PvdQ acylase enzyme activity blockers – biochemical, fluorescence, plate reader and imaging, cherry-picks, dose response (AID 493231)
# [17] = target: T3, Alkaline phosphatase, tissue-nonspecific isozyme; test: TNAP enzyme inhibition by screening hits, dose response, selectivity assay for mouse IAP inhibitor project, biochemical, human TNAP, uHTS hits (AID 488906); type: functional
# [18] = target: T6, Streptokinase A (Streptococcus pyogenes serotype M1, UniProt P10520); test: viability-normalized secreted streptokinase activity reduction – plasminogen activation absorbance, OD405, dose response (AID 1914); type: functional, Streptococcus pyogenes M1 GAS;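 also: secreted streptokinase activity via plasminogen activation per viability signal from cell pellet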
# T6 sequence (P10520 whole entry): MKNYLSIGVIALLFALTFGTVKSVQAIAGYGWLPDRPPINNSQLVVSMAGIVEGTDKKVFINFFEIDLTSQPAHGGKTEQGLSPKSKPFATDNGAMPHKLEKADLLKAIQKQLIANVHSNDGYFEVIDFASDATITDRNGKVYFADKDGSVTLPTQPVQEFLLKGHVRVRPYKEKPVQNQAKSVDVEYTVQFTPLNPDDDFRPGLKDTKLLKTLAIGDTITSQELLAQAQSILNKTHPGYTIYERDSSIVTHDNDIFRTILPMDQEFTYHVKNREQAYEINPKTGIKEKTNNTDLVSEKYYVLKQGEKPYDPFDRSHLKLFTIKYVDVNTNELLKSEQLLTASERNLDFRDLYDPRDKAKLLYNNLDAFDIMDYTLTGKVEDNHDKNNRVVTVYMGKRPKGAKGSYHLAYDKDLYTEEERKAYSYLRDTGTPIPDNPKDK
# [19] = test system: Streptococcus sp. 'group A'; test: Streptococcus pyogenes SK(-)GAS viability under kanamycin – luminescence, BacTiterGlo, confirmation, counter-screen for streptokinase expression inhibitor project, dose response (AID 1900); type: functional, organism-based
# [20] = target: T4, Intestinal-type alkaline phosphatase; test: activation of human intestinal alkaline phosphatase – biochemical, dose response (AID 488873); type: functional
# [21] = test system: Streptococcus; test: GAS UMAA2166 growth inhibition – luminescence, BacTiterGlo, counter-screen for streptokinase expression inhibitor project, dose response (AID 1915); type: functional, organism-based;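 also: potency for reduction of bacterial viability or growth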
# [22] = target: T5, Intestinal-type alkaline phosphatase; test: PubChem AID 488785; type: functional
# [23] = target: Troponin, cardiac muscle (Homo sapiens, UniProt P19429+P45379+P63316); test: Fluorescence-based biochemical high throughput dose response assay for activators of the calcium sensitivity of cardiac Regulated Thin Filaments (RTF). [Related pubchem assays (depositor defined):AID493008, AID493018, AID504382, AID504383]; type: protein-complex assay
# [24] = target: T7, Cytochrome P450 2C19 (Homo sapiens, UniProt P33261); test: qHTS Assay for Inhibitors and Substrates of Cytochrome P450 2C19. [Related pubchem assays: 410 ]; type: ADME; conditions: read-out: Potency
# [25] = target: Cytochrome P450 2D6 (Homo sapiens, UniProt P10635); test: qHTS Assay for Inhibitors and Substrates of Cytochrome P450 2D6. [Related pubchem assays: 410 ]; type: ADME; conditions: read-out: Potency
# [26] = target: T8, Aminopeptidase N (Plasmodium falciparum FcB1/Columbia, UniProt O96935); test: malaria alanyl aminopeptidase activity blockers – biochemical, fluorogenic H-Leu-NHMec substrate, 1536-well (AID 1445); set-up: species or system Plasmodium falciparum 3D7, 3D7
# T8 sequence (O96935 whole entry): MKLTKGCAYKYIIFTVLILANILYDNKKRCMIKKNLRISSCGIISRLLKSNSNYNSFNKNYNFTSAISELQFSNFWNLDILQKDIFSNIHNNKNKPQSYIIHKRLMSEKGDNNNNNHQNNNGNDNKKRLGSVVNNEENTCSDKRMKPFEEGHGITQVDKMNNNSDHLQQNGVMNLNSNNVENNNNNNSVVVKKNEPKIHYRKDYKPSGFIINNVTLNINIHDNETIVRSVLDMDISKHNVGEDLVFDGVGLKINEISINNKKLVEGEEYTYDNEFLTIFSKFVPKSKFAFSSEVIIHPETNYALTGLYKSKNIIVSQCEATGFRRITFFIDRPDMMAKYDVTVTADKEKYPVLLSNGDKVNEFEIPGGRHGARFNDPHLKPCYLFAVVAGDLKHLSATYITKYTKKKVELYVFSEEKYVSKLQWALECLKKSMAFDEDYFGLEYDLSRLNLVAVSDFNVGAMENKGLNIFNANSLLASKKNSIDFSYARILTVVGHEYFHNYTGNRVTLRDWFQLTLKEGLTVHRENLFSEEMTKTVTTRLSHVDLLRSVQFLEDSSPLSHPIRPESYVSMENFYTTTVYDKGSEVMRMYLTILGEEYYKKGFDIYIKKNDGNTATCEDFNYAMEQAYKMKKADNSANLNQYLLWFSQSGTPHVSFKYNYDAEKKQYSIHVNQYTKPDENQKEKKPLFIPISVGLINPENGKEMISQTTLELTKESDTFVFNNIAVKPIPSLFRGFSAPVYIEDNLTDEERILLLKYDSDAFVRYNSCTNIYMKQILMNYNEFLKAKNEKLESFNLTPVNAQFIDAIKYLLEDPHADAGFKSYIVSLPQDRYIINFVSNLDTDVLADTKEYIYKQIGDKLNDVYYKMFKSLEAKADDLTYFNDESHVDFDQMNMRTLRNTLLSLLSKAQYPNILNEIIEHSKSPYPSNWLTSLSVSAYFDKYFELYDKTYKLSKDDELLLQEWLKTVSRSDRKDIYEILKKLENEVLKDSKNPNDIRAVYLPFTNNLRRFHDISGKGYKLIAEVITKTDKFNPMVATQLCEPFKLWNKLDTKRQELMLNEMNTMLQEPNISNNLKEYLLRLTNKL
# [27] = target: Lysosomal acid glucosylceramidase (Homo sapiens, UniProt P04062); test: Dose response cell-based high throughput screening assay to identify enhancers of beta-glucosidase activity. [Related pubchem assays: 784 ]; type: functional
# [28] = target: Cytochrome P450 2C9 (Homo sapiens, UniProt P11712)
# [29] = target: T7, Cytochrome P450 2C19; test: Cytochrome panel assay with activity outcomes. Panel member name: p450-cyp2c19 Compounds with AC50 equal or less than 10 uM are considered active; type: functional
# [30] = target: G-protein coupled receptor 55 (Homo sapiens, UniProt Q9Y2T6); test: inhibition of LPI-stimulated GPR55 beta-arrestin translocation – imaging, U2OS, beta-arrestin-GFP, LPI agonist, primary screen (AID 2013); type: functional;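 also: antagonist potency measured as reduced agonist-driven arrestin aggregation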
# G-protein coupled receptor 55, sequence (Q9Y2T6 whole entry): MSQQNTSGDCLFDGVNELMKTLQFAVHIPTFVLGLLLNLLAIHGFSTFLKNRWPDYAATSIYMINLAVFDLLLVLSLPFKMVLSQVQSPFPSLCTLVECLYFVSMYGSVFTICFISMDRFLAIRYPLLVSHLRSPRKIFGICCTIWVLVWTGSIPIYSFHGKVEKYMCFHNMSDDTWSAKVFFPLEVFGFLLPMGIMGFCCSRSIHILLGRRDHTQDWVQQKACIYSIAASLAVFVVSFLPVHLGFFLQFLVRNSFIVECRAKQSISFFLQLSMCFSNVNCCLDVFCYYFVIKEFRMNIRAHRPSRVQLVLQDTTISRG
# T5 sequence (P24822 whole entry): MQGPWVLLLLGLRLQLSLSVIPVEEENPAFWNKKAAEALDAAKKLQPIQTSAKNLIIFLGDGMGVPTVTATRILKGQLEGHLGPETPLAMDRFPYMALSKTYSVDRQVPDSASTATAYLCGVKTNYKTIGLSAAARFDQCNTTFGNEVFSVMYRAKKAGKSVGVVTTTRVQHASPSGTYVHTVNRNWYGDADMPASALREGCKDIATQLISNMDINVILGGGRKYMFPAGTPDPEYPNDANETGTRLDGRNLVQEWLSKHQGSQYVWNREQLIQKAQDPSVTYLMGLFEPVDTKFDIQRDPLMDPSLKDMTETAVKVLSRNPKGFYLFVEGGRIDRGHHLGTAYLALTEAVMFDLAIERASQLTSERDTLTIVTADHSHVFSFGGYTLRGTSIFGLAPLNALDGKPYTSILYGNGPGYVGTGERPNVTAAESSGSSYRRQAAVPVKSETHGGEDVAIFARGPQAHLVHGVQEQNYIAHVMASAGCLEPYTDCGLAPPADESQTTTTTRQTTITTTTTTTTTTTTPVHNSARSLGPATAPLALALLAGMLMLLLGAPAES
# T4 sequence (P09923 whole entry): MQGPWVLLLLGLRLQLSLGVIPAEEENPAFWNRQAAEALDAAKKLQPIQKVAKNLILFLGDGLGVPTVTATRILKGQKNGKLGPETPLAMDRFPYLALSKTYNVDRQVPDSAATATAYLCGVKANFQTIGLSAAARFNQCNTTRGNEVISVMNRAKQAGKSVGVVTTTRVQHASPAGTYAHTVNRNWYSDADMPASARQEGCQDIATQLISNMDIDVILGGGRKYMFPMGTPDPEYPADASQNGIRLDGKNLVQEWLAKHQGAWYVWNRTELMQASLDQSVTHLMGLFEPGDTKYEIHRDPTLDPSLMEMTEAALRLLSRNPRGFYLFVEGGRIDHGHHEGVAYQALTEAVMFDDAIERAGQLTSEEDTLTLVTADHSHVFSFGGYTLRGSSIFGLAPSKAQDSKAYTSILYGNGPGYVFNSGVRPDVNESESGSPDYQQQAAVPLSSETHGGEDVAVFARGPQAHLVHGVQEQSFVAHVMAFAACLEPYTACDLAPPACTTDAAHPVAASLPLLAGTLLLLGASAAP
# T7 sequence (P33261 whole entry): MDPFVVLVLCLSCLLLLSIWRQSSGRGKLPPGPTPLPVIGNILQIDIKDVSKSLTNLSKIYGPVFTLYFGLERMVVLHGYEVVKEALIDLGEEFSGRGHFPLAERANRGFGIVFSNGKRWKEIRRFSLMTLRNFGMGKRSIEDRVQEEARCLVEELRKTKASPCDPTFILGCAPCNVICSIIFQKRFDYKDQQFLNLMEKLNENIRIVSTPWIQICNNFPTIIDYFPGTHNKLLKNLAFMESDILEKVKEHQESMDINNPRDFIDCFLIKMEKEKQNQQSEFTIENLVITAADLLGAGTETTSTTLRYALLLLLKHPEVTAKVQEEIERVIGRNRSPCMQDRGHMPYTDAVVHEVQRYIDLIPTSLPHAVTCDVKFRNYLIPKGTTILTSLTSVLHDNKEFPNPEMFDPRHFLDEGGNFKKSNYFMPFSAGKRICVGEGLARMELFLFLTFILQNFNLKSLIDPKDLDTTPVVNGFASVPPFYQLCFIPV
# Induced myeloid leukemia cell differentiation protein Mcl-1, sequence (Q07820 whole entry): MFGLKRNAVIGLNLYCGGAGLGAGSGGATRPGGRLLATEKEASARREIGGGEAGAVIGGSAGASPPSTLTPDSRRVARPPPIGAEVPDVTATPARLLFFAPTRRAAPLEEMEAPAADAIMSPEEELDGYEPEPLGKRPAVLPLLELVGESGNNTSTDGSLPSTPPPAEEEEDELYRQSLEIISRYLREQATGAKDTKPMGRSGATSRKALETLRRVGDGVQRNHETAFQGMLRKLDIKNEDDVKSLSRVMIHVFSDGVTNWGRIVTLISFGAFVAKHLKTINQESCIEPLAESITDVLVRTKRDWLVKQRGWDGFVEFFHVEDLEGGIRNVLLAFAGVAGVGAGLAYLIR
# Aspartyl aminopeptidase, sequence (Q8I2J3 whole entry): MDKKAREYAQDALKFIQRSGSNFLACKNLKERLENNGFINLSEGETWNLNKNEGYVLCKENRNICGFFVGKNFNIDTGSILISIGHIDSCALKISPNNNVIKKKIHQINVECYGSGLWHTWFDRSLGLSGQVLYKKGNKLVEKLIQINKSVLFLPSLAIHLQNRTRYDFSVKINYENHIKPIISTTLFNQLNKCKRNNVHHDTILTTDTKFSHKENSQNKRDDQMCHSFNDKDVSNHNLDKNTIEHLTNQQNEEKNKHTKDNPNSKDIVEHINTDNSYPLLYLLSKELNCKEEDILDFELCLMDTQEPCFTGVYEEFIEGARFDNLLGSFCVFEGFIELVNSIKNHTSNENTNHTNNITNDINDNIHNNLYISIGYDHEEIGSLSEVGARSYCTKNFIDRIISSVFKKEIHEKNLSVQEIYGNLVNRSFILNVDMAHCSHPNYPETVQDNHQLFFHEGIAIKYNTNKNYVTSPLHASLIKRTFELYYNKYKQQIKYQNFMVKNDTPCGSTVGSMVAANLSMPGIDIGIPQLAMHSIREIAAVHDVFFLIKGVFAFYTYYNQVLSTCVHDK
# Lysosomal acid glucosylceramidase, sequence (P04062 whole entry): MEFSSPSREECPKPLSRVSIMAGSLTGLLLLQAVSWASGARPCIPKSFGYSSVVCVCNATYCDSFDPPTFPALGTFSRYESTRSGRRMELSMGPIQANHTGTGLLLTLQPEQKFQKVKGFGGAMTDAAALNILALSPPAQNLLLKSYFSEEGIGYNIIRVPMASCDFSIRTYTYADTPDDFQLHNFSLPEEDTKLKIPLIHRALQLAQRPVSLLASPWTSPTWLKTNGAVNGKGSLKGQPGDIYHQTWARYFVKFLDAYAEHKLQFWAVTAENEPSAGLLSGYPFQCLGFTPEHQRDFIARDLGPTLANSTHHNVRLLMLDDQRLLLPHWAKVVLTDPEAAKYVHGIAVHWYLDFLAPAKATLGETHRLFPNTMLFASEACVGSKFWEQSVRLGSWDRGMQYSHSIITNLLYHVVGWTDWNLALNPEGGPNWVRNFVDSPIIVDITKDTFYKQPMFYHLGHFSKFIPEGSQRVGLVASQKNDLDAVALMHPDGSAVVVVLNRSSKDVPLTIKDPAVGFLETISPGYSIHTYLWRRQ
# Acyl-homoserine lactone acylase PvdQ, sequence (Q9I194 24-193 limits assumed): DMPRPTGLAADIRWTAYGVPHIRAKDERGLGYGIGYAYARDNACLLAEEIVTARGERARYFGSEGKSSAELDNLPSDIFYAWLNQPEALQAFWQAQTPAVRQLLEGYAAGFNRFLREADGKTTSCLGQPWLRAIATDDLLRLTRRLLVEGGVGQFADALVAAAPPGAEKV
# Acyl-homoserine lactone acylase PvdQ, sequence (Q9I194 217-762 limits assumed): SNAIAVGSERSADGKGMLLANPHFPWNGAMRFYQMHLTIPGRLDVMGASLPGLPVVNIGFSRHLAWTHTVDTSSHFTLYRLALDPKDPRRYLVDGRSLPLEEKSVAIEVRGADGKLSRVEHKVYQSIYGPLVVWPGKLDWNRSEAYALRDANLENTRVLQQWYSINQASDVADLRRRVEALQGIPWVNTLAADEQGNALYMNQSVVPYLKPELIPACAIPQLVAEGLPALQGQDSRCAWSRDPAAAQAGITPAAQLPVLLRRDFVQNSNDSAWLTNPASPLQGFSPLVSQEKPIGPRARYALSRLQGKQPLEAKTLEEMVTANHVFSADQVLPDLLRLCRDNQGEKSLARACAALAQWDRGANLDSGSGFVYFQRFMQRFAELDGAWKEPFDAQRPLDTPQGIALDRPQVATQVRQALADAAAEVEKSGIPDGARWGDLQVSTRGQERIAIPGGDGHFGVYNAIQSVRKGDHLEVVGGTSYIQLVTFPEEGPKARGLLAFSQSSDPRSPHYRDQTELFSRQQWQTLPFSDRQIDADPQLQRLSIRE
# Procathepsin L, sequence (P07711 whole entry): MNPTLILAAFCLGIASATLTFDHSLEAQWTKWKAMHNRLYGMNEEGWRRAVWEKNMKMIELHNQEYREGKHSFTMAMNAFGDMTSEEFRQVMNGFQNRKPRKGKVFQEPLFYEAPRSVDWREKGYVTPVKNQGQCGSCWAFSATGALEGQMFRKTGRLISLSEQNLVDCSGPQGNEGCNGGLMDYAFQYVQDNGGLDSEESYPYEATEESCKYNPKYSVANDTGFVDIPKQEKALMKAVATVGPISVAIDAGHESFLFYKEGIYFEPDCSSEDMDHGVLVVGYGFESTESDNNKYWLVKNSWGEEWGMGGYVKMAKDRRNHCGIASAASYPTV
# Cytochrome P450 2C9, sequence (P11712 whole entry): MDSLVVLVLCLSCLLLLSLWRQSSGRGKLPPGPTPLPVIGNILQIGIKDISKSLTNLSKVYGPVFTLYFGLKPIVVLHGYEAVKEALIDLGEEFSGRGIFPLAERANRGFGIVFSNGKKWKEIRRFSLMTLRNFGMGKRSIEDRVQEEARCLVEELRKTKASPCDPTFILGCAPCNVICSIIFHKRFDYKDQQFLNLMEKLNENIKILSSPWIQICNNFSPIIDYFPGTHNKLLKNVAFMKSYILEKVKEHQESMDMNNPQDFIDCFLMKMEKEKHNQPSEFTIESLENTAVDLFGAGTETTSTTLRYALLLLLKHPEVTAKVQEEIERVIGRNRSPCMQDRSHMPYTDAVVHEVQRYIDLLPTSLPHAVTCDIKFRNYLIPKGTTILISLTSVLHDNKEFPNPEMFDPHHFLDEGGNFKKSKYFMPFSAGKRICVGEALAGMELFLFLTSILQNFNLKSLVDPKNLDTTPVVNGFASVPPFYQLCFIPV
structure (smiles),measurement,setting,value
CSc1nc(NCCOCCO)c2sc3nc(-c4ccco4)c4c(c3c2n1)CCC4,IC50,[1],1.92 µM (active)
same,IC50,[2],14.7 µM (active)
same,EC50,[3],6.86 µM (active)
same,IC50,[4],1.98 µM (active)
same,IC50,[5],> 50 µM (not active)
same,IC50,[6],> 100 µM (not active)
same,EC50,[7],8.85 µM (active)
CCOc1cc(C(=O)NC(=S)Nn2cnnc2)cc(OCC)c1OCC,IC50,[8],0.921 µM (active)
same,IC50,[9],> 59.6 µM (not active)
CC1=NN(c2nc3ccccc3[nH]2)C(=O)/C1=C/N(C)C,AC50,[10],6.12 µM (active)
same,EC50,[11],11.4 µM (active)
same,EC50,[12],12.3 µM (active)
same,EC50,[13],> 100 µM (inactive)
same,EC50,[14],23.2 µM (active)
same,AC50,[15],2.48 µM (active)
Cc1cc(C)nc(N(C#N)Cc2ccc([N+](=O)[O-])cc2)n1,AC50,[16],> 100 µM (inactive)
NS(=O)(=O)c1ccc(-c2ccc(/C=C3\SC(=S)N(C4CCS(=O)(=O)C4)C3=O)o2)cc1 (centres undefined),IC50,[1],1.85 µM (active)
same,IC50,[17],1.32 µM (active)
same,EC50,[18],> 150 µM (not active)
same,EC50,[19],7.36 µM (active)
same,EC50,[20],29.4 µM (active)
same,EC50,[21],32.2 µM (active)
same,IC50,[22],> 100 µM (inactive)
Cn1cc(/C=C2\SC(=S)N(NC(=O)c3ccccc3)C2=O)c2ccccc21,EC50,[23],1.47 µM (active)
CCOC(=O)c1ccc(NC(=O)c2ccco2)cc1,AC50,[16],57.2 µM (active)
CCOC(=O)[C@]1(C(NC(=O)OC)c2cccc(F)c2)CCCC1=O (some centres undefined),AC50,[24],3.98 µM (inconclusive)
same,AC50,[25],3.98 µM (inconclusive)
COc1ccc(C(=O)n2cnnc2N)cc1,IC50,[8],2.51 µM (active)
same,IC50,[9],> 59.6 µM (not active)
CC(=O)Nc1cccc(NC(=O)C2CCCN2C(=O)Nc2ccc(C)cc2)c1 (centres undefined),IC50,[26],61.3 µM (active)
same,EC50,[27],> 50 µM (not active)
COc1cccc2cc(NC(=O)C3CCCCC3)c(=O)oc12,AC50,[28],inconclusive
same,AC50,[29],39.8 µM (inconclusive)
same,EC50,[27],> 50 µM (not active)
Cc1ccc(-c2nc(SCC(=O)N(C)C3CCS(=O)(=O)C3)[nH]c2-c2ccc(C)cc2)cc1 (centres undefined),IC50,[30],3.83 µM (active)
Cc1nn(C)c(C(=O)NN=C(S)NCc2ccccc2)c1Cl,EC50,[11],17.3 µM (active)
same,EC50,[12],14.8 µM (active)
same,EC50,[13],> 100 µM (inactive)
same,EC50,[14],17 µM (active)
